Test results taken from patent publication US20080096853A1, “Edible Compositions Comprising A Primary Lipid, A Co-Lipid, A Lipohilic Physiologically Active Ingredient And Water, And Their Preparation” (priority 2004, published 2008).

Tests used:
Assay type in all cases: physicochemical
[1] = In situ incorporation of carotenoids from carrot juice into LFEGPG (absorbance at 448 nm); conditions: Silverson
Method: • 1) 1 g solid LFEGPG was added to 100 ml cold carrot juice (97% pure fresh carrot juice, Zonnatura B.V Zoetermeer, Netherlands). The mixture was warmed up to 50° C. and kept at this temperature for 30 min with magnetic stirring. Homogenization was performed with a Silverson homogenizer at ˜5500 rpm followed by another hydration step for 5 min at 50° C. • The LFEGPG phase was filtrated, collected and dissolved in hexane. The β-carotene content was determined spectrophotometrically (absorbance at 448 nm) to be 0.68 mg β-carotene/g dry lipid phase (corrected for a water content of the hydrated LFEGPG phase of 30%). • (2) 2 g LFEGPG were melted at 50° C. and added dropwise to 100 ml carrot juice kept at 50° C. Magnet stirring was performed for 1 hour at 50° C., then the solution was homogenized with a Silverson homogenizer (4500 rpm for 1 minute) and magnet stirred at 50° C. for another 1 hour. The LFEGPG phase was collected by filtration and dissolved in hexane. The β-carotene content was spectrophotometrically determined (absorbance at 448 nm) to be 1.5 mg β-carotene/g dry LFEGPG. […] Magnet stirring was performed for 20 min at 50° C., Silverson (4500 rpm, 1 min.), and magnet stirred at 50° C. for another 10 min at 50° C. The LFEGPG phase was collected by filtration and dissolved in hexane. The β-carotene content was spectrophotometrically determined (absorbance at 448 nm) to be 2.0 mg β-carotene/g dry LFEGPG.

[2] = USP24 dissolution test type II: solubility of β-carotene in bile extract solution; conditions: 900 ml bile extract solution in aqueous buffer, 37° C., stirring in USP24 for 60 min
Method: 6 mg of β-carotene and 2 g of lactic fatty acid ester+glycerol/propylene glycol reaction product (LFEGPG) were dissolved at 55° C. in 10 ml of ethanol. This solution was added dropwise to 200 ml of intensely agitated Tris buffer ([…]). After 15 minutes of stirring, the solution was cooled down and the pH adjusted to 4.0 with 1M HCl. The precipitate was then filtrated and LFEGPG lipid phase containing molecularly-dispersed β-carotene was used further in this experiment.
The precipitate was added to the USP24 vessel (dissolution test type II) loaded with 900 ml of bile extract solution in aqueous buffer at 37° C. As a control, 6 mg of free crystalline β-carotene was added to the same buffered bile solution in USP24.

[3] = Incorporation of β-carotene into LFEGPG in model systems (UV-Vis after centrifugation and hexane extraction)
Method: • (1) A. 1 g LFEGPG and 2.4 mg pure β-carotene were added to 100 ml water, followed by magnet stirring for 1 h at 50° C. 1.7 mg β-carotene/g dry LFEGPG were detected by UV-Vis spectrophotometry after centrifugation and extraction of β-carotene from the collected lipid phase by hexane. • B. 1 g LFEGPG and 2.4 mg pure β-carotene were melted together and added dropwise to 100 ml water, followed by magnet stirring for 20 min at 50° C. Ultra Turrax was applied to homogenize the sample, then the sample was magnet stirred for another 10 min at 50° C. […] Polymorphic or mesomorphic lipid phases containing molecularly dispersed β-carotene were derived (judged from appearance under microscope, however also a few free β-carotene crystals were detected, thus not completely molecularly dispersed). • (4) As the solubility of β-carotene in ethanol is limited, complete molecular dispersion of β-carotene was achieved by the use of non food-grade solvents such as chloroform. […] The lipid phase was investigated under the optical light microscope, and no β-carotene crystals could be detected. • (5) 0.2 g of LFEGPG and 2 mg β-carotene as well as 0.2 g a LFEGPG/Datem (diacetyl tartaric acid esters of mono- and diglycerides) mixture (93/7, by wt) and 2 mg β-carotene were dissolved in chloroform. […]

β-carotene content of LFEGPG phase ([1]; Example 7 (1): 1 g solid LFEGPG in 100 ml cold carrot juice, 50° C. 30 min, corrected for 30% water content): 0.68 mg β-carotene/g dry lipid phase | β-carotene content of LFEGPG phase ([1]; Example 7 (2): 2 g molten LFEGPG in 100 ml carrot juice, 1 hour stirring, another 1 hour, 50° C.): 1.5 mg β-carotene/g dry LFEGPG | β-carotene content of LFEGPG phase ([1]; Example 7 (3): 1 g molten LFEGPG in 100 ml carrot juice, 20 min stirring, another 10 min, 50° C.): 2.0 mg β-carotene/g dry LFEGPG | solubility of β-carotene in the bile solution, from the initial amount (6 mg) [2]: ~0% | β-carotene detected in collected lipid phase ([3]; Example 6 (1) A: 1 g LFEGPG and 2.4 mg β-carotene added to 100 ml water, stirred 1 h at 50° C.): 1.7 mg β-carotene/g dry LFEGPG | β-carotene recovered ([3]; Example 6 (1) B: 1 g LFEGPG and 2.4 mg β-carotene melted together, added dropwise to 100 ml water, Ultra Turrax): 2.2 mg
Structure (SMILES): CC1=C(/C=C/C(C)=C/C=C/C(C)=C/C=C/C=C(C)/C=C/C=C(C)/C=C/C2=C(C)CCCC2(C)C)C(C)(C)CCC1 [β-carotene]
